Laboratory results from PubChem BioAssay (NCI).
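The compound was tested at five concentrations on cells cultured in 96-well plates, with a 48-hour exposure period. TGI marks complete inhibition of growth.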

Key:
Experiment in all cases: NCI tumour cell line growth inhibition, 48 h
[1] = tested on: HCT-15 colon
[2] = tested on: UACC-62 melanoma
[3] = tested on: NCI-H226 lung
[4] = tested on: OVCAR-4 ovarian
[5] = tested on: MDA-N
[6] = tested on: TK-10 renal
[7] = tested on: DU-145 prostate
[8] = tested on: SNB-19 CNS
[9] = tested on: M14 melanoma
[10] = tested on: MALME-3M melanoma
[11] = tested on: HT29 colon
[12] = tested on: HS 578T breast
[13] = tested on: 786-0 renal
[14] = tested on: T-47D breast
[15] = tested on: SK-MEL-2 melanoma
[16] = tested on: U251 CNS
[17] = tested on: BT-549 breast
[18] = tested on: UACC-257 melanoma
[19] = tested on: NCI/ADR-RES ovarian
[20] = tested on: LOX IMVI melanoma
[21] = tested on: MDA-MB-231 breast
[22] = tested on: HOP-62 NSCLC
[23] = tested on: OVCAR-3 ovarian
[24] = tested on: KM12 colon
[25] = tested on: SK-MEL-5 melanoma
[26] = tested on: RXF 393 renal
[27] = tested on: NCI-H522 lung
[28] = tested on: NCI-H460 lung
[29] = tested on: SF-295 CNS
[30] = tested on: HL-60(TB) leukemia
[31] = tested on: SN12C renal
[32] = tested on: PC-3 prostate
[33] = tested on: SF-268 CNS
[34] = tested on: A498 renal
[35] = tested on: MOLT-4 leukemia
[36] = tested on: ACHN renal
[37] = tested on: SW-620 colon
[38] = tested on: OVCAR-5 ovarian
[39] = tested on: OVCAR-8 ovarian
[40] = tested on: CCRF-CEM leukemia
[41] = tested on: HCT-116 colon
[42] = tested on: MCF7 breast
[43] = tested on: COLO 205 colon
[44] = tested on: EKVX NSCLC
[45] = tested on: UO-31 renal
[46] = tested on: NCI-H23 lung
[47] = tested on: SK-MEL-28 melanoma
[48] = tested on: IGROV1 ovarian
[49] = tested on: K-562 leukemia
[50] = tested on: CAKI-1 renal
[51] = tested on: RPMI-8226 leukemia
[52] = tested on: MDA-MB-435
[53] = tested on: A549 NSCLC
[54] = tested on: SR leukemia
[55] = tested on: HCC-2998 colon
[56] = tested on: SF-539 CNS
[57] = tested on: SK-OV-3 ovarian
[58] = tested on: SNB-75 CNS

In the case of Cc1ccc2c(=O)c(-c3nnsn3)c[nH]c2n1, the TGI [1] is reported as > 100 µM, the TGI [2] is reported as > 100 µM and the TGI [3] is reported as > 100 µM. The TGI [4] was > 100 µM, the TGI [5] was > 100 µM and the TGI [6] was > 100 µM. The TGI [7] was > 100 µM, the TGI [8] was > 100 µM and the TGI [9] was > 100 µM. The TGI [10] was > 100 µM, the TGI [11] was > 100 µM and the TGI [12] was > 100 µM. For the same compound, the TGI [13] was > 100 µM, the TGI [14] was > 100 µM and the TGI [15] was > 100 µM. The TGI [16] was > 100 µM, the TGI [17] was > 100 µM and the TGI [18] was > 100 µM. For the same compound, the TGI [19] was > 100 µM, the TGI [20] was > 100 µM and the TGI [21] was > 100 µM. For the same compound, the TGI [22] was > 100 µM, the TGI [23] was > 100 µM and the TGI [24] was > 100 µM. The TGI [25] was > 100 µM, the TGI [26] was > 100 µM and the TGI [27] was > 100 µM. For the same compound, the TGI [28] was > 100 µM, the TGI [29] was > 100 µM and the TGI [30] was > 100 µM. The TGI [31] was > 100 µM, the TGI [32] was > 100 µM and the TGI [33] was > 100 µM. The TGI [34] was > 100 µM, the TGI [35] was > 100 µM and the TGI [36] was > 100 µM. For the same compound, the TGI [37] was > 100 µM, the TGI [38] was > 100 µM and the TGI [39] was > 100 µM. The TGI [40] was > 100 µM, the TGI [41] was > 100 µM and the TGI [42] was > 100 µM. The TGI [43] was > 100 µM, the TGI [44] was > 100 µM and the TGI [45] was > 100 µM. For the same compound, the TGI [46] was > 100 µM, the TGI [47] was > 100 µM and the TGI [48] was > 100 µM. The TGI [49] was > 100 µM, the TGI [50] was > 100 µM and the TGI [51] was > 100 µM. The TGI [52] was > 100 µM and the TGI [53] was > 100 µM.
With Oc1c(Cl)ccc2cccnc12 the TGI [1] was > 100 µM, the TGI [2] was 8.09 µM and the TGI [3] was 71.2 µM. The TGI [4] was > 100 µM, the TGI [5] was > 100 µM and the TGI [6] was > 100 µM. The TGI [7] was > 100 µM, the TGI [8] was > 100 µM and the TGI [9] was > 100 µM. For the same compound, the TGI [10] was > 100 µM, the TGI [11] was > 100 µM and the TGI [12] was > 100 µM. It also gave a TGI [54] of 13.5 µM, a TGI [13] of 51.4 µM and a TGI [14] of 25.8 µM. For the same compound, the TGI [16] was > 100 µM, the TGI [17] was > 100 µM and the TGI [18] was 84.2 µM. For the same compound, the TGI [19] was 3.43 µM, the TGI [20] was 29.7 µM and the TGI [21] was > 100 µM. For the same compound, the TGI [22] was 59.6 µM, the TGI [23] was > 100 µM and the TGI [24] was > 100 µM. For the same compound, the TGI [25] was > 100 µM, the TGI [26] was 26.2 µM and the TGI [27] was 7.78 µM. The TGI [28] was 88 µM, the TGI [29] was 68.4 µM and the TGI [30] was 0.728 µM. For the same compound, the TGI [31] was 88.5 µM, the TGI [32] was > 100 µM and the TGI [33] was > 100 µM. It also gave a TGI [34] of 33.1 µM, a TGI [35] of 5.76 µM and a TGI [36] of 35.8 µM. For the same compound, the TGI [37] was > 100 µM, the TGI [38] was > 100 µM and the TGI [55] was > 100 µM. The TGI [39] was > 100 µM, the TGI [40] was 2.4 µM and the TGI [41] was 4.56 µM. For the same compound, the TGI [56] was 34.7 µM, the TGI [43] was > 100 µM and the TGI [44] was 39.4 µM. For the same compound, the TGI [45] was 41.1 µM, the TGI [46] was > 100 µM and the TGI [47] was > 100 µM. For the same compound, the TGI [48] was 1.86 µM, the TGI [49] was 7.56 µM and the TGI [57] was > 100 µM. For the same compound, the TGI [50] was > 100 µM, the TGI [51] was 8.28 µM and the TGI [52] was > 100 µM. For the same compound, the TGI [53] was > 100 µM and the TGI [58] was 89.6 µM.
